According to PMC12559008 (Nature cancer, 2025):

Experiments:
[1] = pKa measurement by pH titration; type: physicochemical; conditions: pH probe, titration of SM-AZO-PTX and SM-AZE-PTX
[2] = MTD dose stated for CPT comparators; conditions: mouse, in vivo, intravenous
in vivo = conditions: B6129SF1/J, mouse, iv
[3] = B6129SF1/J, mouse, in vivo, iv, 24 h
[4] = mouse, in vivo

C1CCCNCC1 [AZE, Azepane]
pKa [1]: ~6.98

C1CCCNCCC1 [AZO, Azocane]
pKa [1]: 5.75

CC[C@@]1(O)C(=O)OCc2c1cc1n(c2=O)Cc2cc3ccccc3nc2-1 [Free CPT, Camptothecin]
MTD [2]: 5 mg/kg

Nc1ccn([C@@H]2O[C@H](CO)[C@@H](O)C2(F)F)c(=O)n1 [GEM, gemcitabine]
half-life (in vivo): 23.4 ± 3.6 min | Injected GEM dose (%), Tumor [3]: 0.21%

Taxol
myelosuppression and neuropathy (sternums and dorsal root ganglia), in words [4]: severely damaged sternums and dorsal root ganglia tissues
